Where a name gives a salt, the structure may show the parent alone. Read-outs that look alike come from different tables or passages of the source.
What was measured:
[1] = target: T1, 5HT2B (Homo sapiens, UniProt P41595); assay: Functional activity IC50 (5HT2B antagonist); type: cell-based
[2] = Rat pK; conditions: in vivo; for bioavailability: read-out: Rat pK: % F
[3] = HLM T1/2; conditions: human, liver microsomes
[4] = target: T2, D2S (Homo sapiens, UniProt P14416); assay: D2S binding (Ki)
[5] = system: IP3; assay: IC50 (IP3); type: cell-based
[6] = target: hERG (Homo sapiens, UniProt Q12809); assay: hERG % inhibition at 1 uM
Sequence of hERG (Q12809 whole entry): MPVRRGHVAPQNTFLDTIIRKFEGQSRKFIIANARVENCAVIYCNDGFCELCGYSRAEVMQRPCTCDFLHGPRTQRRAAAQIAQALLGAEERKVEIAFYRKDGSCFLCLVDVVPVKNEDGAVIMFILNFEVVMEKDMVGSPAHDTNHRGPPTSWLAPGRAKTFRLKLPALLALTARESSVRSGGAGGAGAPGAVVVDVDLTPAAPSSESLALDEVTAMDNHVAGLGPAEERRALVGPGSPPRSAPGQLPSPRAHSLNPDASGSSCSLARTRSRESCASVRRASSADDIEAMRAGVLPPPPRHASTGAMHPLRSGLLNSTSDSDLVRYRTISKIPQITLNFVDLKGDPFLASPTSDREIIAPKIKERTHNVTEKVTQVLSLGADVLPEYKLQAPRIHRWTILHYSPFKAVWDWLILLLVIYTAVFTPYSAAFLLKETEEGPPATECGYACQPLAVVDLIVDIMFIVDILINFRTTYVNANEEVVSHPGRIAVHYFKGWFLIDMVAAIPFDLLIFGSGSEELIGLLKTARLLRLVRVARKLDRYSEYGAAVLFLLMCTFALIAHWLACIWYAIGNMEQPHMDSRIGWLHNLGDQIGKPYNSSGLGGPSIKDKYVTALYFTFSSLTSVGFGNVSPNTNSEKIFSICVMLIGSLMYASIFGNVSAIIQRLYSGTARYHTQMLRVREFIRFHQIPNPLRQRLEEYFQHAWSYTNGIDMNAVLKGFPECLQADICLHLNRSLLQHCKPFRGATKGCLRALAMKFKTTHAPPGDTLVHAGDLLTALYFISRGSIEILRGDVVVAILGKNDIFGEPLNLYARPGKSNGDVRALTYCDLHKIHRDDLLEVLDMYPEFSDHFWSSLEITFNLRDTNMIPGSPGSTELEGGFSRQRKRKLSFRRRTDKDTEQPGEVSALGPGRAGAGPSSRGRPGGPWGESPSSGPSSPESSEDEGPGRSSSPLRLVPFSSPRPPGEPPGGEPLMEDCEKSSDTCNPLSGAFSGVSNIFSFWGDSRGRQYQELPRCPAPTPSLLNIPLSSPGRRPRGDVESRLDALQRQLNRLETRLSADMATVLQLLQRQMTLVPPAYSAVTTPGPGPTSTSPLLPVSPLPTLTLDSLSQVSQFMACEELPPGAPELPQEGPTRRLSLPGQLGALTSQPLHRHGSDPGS

[7] = target: T1, 5HT2B; assay: 5HT2B binding (Ki of Biological Data Table)
[8] = % Protein Binding; type: in vitro ADME
[9] = target: D3 (Homo sapiens, UniProt P35462); assay: D3 binding (Ki)
Sequence of D3 (P35462 whole entry): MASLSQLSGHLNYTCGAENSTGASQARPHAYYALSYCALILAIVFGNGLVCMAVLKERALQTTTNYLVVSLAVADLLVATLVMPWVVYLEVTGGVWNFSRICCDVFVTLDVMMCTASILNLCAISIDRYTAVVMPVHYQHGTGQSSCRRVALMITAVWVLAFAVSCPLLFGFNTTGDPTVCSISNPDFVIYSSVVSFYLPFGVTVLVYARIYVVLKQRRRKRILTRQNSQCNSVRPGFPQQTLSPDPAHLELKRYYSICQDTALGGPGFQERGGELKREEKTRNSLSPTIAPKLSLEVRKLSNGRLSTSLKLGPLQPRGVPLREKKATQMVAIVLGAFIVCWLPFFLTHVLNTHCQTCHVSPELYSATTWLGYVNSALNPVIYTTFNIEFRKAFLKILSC

[10] = target: T3, 5HT1A (Homo sapiens, UniProt P08908); assay: 5HT1A binding (Ki)
T3 sequence (P08908 1-422): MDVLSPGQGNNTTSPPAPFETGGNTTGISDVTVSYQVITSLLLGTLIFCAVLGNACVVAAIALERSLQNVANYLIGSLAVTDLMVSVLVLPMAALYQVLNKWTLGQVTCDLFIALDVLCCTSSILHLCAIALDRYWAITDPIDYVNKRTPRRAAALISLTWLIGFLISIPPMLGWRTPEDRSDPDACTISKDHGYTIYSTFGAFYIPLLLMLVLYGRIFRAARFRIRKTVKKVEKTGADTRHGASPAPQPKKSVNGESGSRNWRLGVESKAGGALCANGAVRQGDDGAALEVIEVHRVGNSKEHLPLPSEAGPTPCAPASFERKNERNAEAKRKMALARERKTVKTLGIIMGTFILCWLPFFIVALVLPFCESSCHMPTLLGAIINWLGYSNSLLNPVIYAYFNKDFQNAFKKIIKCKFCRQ

[11] = target: T4, 5HT2A (Homo sapiens, UniProt P28223); assay: 5HT2A binding (Ki)
T4 sequence (P28223 whole entry, species assumed): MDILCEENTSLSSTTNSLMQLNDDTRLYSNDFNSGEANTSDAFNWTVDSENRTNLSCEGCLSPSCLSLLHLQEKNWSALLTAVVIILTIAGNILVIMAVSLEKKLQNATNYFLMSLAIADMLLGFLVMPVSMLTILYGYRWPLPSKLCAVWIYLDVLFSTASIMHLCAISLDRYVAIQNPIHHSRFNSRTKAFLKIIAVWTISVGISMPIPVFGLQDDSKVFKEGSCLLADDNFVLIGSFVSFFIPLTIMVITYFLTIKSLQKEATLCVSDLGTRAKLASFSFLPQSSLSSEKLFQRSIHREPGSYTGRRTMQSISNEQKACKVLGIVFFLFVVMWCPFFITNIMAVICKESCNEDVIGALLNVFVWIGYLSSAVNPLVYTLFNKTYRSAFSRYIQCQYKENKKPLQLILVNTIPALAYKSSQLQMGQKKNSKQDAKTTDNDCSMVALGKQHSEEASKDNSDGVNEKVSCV

[12] = target: T5, D4.4 (Homo sapiens, UniProt P21917); assay: D4.4 binding (Ki)
T5 sequence (P21917 1-419): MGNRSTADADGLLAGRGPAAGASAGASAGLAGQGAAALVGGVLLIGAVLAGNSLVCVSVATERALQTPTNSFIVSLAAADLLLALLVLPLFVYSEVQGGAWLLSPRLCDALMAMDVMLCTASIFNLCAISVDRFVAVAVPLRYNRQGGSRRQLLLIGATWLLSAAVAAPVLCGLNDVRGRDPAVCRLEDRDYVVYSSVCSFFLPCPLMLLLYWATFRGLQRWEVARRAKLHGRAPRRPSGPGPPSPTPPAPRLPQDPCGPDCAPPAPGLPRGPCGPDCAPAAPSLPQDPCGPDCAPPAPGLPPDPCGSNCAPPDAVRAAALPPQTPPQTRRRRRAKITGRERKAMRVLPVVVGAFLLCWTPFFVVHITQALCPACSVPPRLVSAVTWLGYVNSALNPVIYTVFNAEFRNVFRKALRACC

[13] = AMES Test; type: cell-based
[14] = target: D2L (Homo sapiens, UniProt P14416); assay: Functional activity D2L; type: cell-based
Sequence of D2L (P14416 whole entry): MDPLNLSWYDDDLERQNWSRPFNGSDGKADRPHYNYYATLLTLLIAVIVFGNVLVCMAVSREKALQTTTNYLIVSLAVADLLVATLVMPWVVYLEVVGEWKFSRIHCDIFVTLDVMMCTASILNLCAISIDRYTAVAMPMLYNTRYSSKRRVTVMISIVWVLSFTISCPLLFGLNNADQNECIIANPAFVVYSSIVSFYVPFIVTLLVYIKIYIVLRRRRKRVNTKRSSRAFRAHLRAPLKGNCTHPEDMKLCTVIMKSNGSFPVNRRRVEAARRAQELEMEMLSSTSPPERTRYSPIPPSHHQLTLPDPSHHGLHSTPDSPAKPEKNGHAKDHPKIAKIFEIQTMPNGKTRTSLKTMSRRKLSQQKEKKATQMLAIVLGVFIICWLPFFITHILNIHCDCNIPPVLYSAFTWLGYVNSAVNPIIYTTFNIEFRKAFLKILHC

[15] = target: T2, D2S; assay: Functional activity D2S; type: cell-based
[16] = target: T4, 5HT2A; assay: Functional activity 5HT2A; type: cell-based
[17] = target: T3, 5HT1A; assay: Functional activity 5HT1A; type: cell-based
[18] = target: T6, D4 (Homo sapiens, UniProt P21917); assay: D4 binding (Ki)
T6 sequence (P21917 1-419): T5 sequence (P21917 1-419)

[19] = po, read-out: Rat pK: T1/2 (po)
[20] = iv, read-out: Rat pK: T1/2 (iv)

T1 sequence (P41595 whole entry, species assumed): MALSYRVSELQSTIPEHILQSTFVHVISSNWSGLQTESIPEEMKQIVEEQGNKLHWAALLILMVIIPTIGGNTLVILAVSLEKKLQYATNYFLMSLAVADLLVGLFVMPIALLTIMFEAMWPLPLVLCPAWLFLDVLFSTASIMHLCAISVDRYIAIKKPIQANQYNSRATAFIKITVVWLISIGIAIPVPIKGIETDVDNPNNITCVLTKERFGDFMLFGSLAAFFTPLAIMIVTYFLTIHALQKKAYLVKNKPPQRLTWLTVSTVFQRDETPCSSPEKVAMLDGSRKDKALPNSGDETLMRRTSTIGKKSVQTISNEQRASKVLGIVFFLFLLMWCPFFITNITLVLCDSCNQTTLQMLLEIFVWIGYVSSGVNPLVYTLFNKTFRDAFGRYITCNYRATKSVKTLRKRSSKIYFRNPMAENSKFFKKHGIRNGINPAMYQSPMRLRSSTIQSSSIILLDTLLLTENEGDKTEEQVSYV
T2 sequence (P14416 1-414 isoform P14416-2): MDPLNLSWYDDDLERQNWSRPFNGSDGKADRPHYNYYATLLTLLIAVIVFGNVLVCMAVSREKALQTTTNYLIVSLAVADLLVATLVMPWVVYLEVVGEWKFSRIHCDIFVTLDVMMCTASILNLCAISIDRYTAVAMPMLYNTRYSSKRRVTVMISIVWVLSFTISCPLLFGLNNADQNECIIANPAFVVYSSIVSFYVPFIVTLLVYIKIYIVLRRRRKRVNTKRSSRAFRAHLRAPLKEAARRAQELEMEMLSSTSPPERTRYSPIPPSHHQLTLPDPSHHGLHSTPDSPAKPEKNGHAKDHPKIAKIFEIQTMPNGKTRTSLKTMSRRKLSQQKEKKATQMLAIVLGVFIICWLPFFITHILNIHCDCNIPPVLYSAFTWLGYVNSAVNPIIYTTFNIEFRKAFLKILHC

Row | Compound | IC50 [1] [nM] | half-life [2, 19] [min] | half-life [3] [min] | Ki ([4]; NA: Not Active) [nM] | bioavailability ([2]; po) [%] | hERG (% Inhibition at 1 uM) [6] | also measured
1 | CC(c1cccc(F)c1)N1CCC(Nc2ncnc3sccc23)CC1 (stereo not drawn) [Example B12, N-(1-(1-(3-fluorophenyl)ethyl)piperidin-4-yl) thieno[2,3-d]pyrimidin-4-amine, dihydrochloride] | – | – | 11 | 250 | – | hERG (% Inhibition at 1 uM): 58.5 | –
2 | CC(C)Cc1cc2c(NC3CCN(C(C)c4cccc(F)c4)CC3)ncnc2s1 (stereo not drawn) [Example B14, N-(1-(1-(3-fluorophenyl)ethyl)piperidin-4-yl)-6-isobutylthieno[2,3-d] pyrimidin-4-amine, dihydrochloride] | 5300 | 30 | < 15 | – | 4 | 76.1% | half-life [2, 20]: 30 min
3 | CC(C)Cc1cc2c(NC3CCN(C(C)c4cc(F)cc(F)c4)CC3)ncnc2s1 (stereo not drawn) [Example B18, N-(1-(1-(3,5-difluorophenyl)ethyl)piperidin-4-yl)-6-isobutylthieno[2,3-d]pyrimidin-4-amine, dihydrochloride] | 5700 | 24 | 7 | – | 3 | 31% | half-life [2, 20]: 12 min; fraction unbound [8]: 0.062
4 | CC(C)c1cc2c(NC3CCN(Cc4cc(F)cc(F)c4)CC3)ncnc2s1 [Example B31, N-(1-(3,5-difluorobenzyl)piperidin-4-yl)-6-isopropylthieno [2,3-d] pyrimidin-4-amine, dihydrochloride] | 830 | 30 | 8 | 230 | 10 | – | –
5 | CC(C)c1cc2c(NC3CCN(Cc4cc(F)cc(F)c4)CC3)ncnc2s1 [Example B32, N-(1-(3,5-difluorobenzyl)piperidin-4-yl)-6-isopropylthieno [2,3-d] pyrimidin-4-amine, monomaleate] | 450 | – | – | – | – | – | IC50 [5]: 1.53 nM
6 | Fc1cc(F)cc(CN2CCC(Nc3ncnc4sc(Cl)cc34)CC2)c1.O=C(O)/C=C\C(=O)O [Example B34, N-(1-(3,5-difluorobenzyl)piperidin-4-yl)-6-chlorothieno[2,3-d]pyrimidin-4-amine, monomaleate] | 680 | 66 | – | 66 | 29.1 | 29.4% | Ki [9]: 140 nM; Ki [10]: 35 nM; Ki [11]: 260 nM; Ki [12]: 3.4 nM; IC50 [5]: 0.74 nM; half-life [2, 20]: 24 min; fraction unbound [8]: 0.01; AMES Test [13]: Negative; IC50 [14]: 17.2 nM; IC50 [15]: 63.3 nM; Functional Activity IC50 (5HT2A) [16]: Not Active; Functional Activity IC50 (5HT1A) [17]: Not Active
7 | Cc1c(Cl)sc2ncnc(NC3CCN(Cc4cccc(F)c4)CC3)c12.O=C(O)/C=C\C(=O)O [Example B38, N-(1-(3-fluorobenzyl)piperidin-4-yl)-6-chloro-5-methylthieno[2,3-d]pyrimidin-4-amine, monomaleate] | 560 | 54 | – | 170 | 18.2 | 78.1% | IC50 [5]: 2.27 nM; half-life [2, 20]: 24 min; fraction unbound [8]: 0.062
8 | Fc1ccc(-c2c(Cl)sc3ncnc(NC4CCN(Cc5cc(F)cc(F)c5)CC4)c23)cc1 [Example B48, N-(1-(3,5-difluorobenzyl)piperidin-4-yl)-6-chloro-5-(4-fluorophenyl) thieno[2,3-d]pyrimidin-4-amine, monomaleate] | – | – | < 15 | – | – | – | Ki [4]: 1100 nM; Ki (5HT1A) [10]: not Active
9 | CNC(=O)c1cccc(CN2CCC(Nc3ncnc4sc(Cl)cc34)CC2)c1 [Example B55, 3-((4-(6-chlorothieno [2,3-d]pyrimidin-4-ylamino)piperidin-1-yl)methyl)-N-methylbenzamide, monomaleate] | – | – | 34 | – | – | – | Ki [18]: 330 nM

Now from value to molecule, other results behind:

Row | IC50 [1] [nM] | half-life [2, 19] [min] | half-life [3] [min] | Ki ([4]; NA: Not Active) [nM] | bioavailability ([2]; po) [%] | Compound | hERG (% Inhibition at 1 uM) [6] | also measured
10 | 110 | 60 | < 15 | – | – | c1ccc(CN2CCC(Nc3ncnc4sc5c(c34)CCCC5)CC2)cc1 [Example B1, N-(1-benzylpiperidin-4-yl)5,6,7,8-tetrahydro-benzo[4,5]thieno[2,3-d]pyrimidin-4-amine] | – | –
11 | 100 | – | 4.3 | 240 | – | Fc1cccc(CN2CCC(Nc3ncnc4sc5c(c34)CCCC5)CC2)c1 [Example B3, N-(1-(3-fluorobenzyl)piperidin-4-yl)5,6,7,8-tetrahydro-bcnzo[4,5]thieno[2,3-d]pyrimidin-4-amine] | 58.5% | IC50 [5]: 22.5 nM
12 | – | – | < 15 | – | – | N#Cc1cccc(CN2CCC(Nc3ncnc4sc5c(c34)CCCC5)CC2)c1 [Example B11, 3-((4-(5,6,7,8-tetrahydro-benzo[4,5]thieno[2,3-d]pyrimidin-4-ylamino)piperidin-1-yl)methyl)benzonitrile, dihydrochloride] | hERG (% Inhibition at 1 uM): 44.9 | % at 1 nM (5HT2B) ([7]; 1 nM): 35%; % at 10 nM (5HT2B) ([7]; 10 nM): 82%; % at 100 nM (5HT2B) ([7]; 100 nM): 101%
13 | 1300 | – | < 15 | – | – | CC(c1cc(F)cc(F)c1)N1CCC(Nc2ncnc3sc4c(c23)CCCC4)CC1 (stereo not drawn) [Example B17, N-(1-(1-(3,5-difluorophenyl)ethyl)piperidin-4-yl)5,6,7,8-tetrahydro-benzo [4,5]thieno[2,3-d] pyrimidin-4-amine, dihydrochloride] | – | –
14 | 1600 | 48 | 19 | – | 17 | Fc1cc(F)cc(CN2CCC(Nc3ncnc4sccc34)CC2)c1 [Example B30, N-(1-(3,5-difluorobenzyl)piperidin-4-yl) thieno[2,3-d]pyrimidin-4-amine, dihydrochloride] | 62% | –
15 | – | – | 12 | – | – | Clc1cc2c(NC3CCN(Cc4cccnc4)CC3)ncnc2s1 [Example B47, 6-chloro-N-(1-((pyridin-3-yl)methyl)piperidin-4-yl)thieno [2,3-d]pyrimidin-4-amine, monomaleate] | – | Ki [4]: > 10000 nM
16 | 27 | 53.4 | 28 | 670 | 22.6 | N#Cc1cc(CN2CCC(Nc3ncnc4sc(Cl)cc34)CC2)ccc1F [Example B50, 5-((4-(6-chlorothieno [2,3-d]pyrimidin-4-ylamino)piperidin-1-yl)methyl)-2-fluorobenzonitrile, monomaleate] | 23.7% | Ki [10]: 100 nM; Ki [12]: 5.4 nM; half-life [2, 20]: 37.2 min; AMES Test [13]: Negative
17 | – | – | < 15 | – | – | O=S(=O)(c1cccc(CN2CCC(Nc3ncnc4sc(Cl)cc34)CC2)c1)C(F)(F)F [Example B56, N-(1-(3-(trifluoromethylsulfonyl)benzyl)piperidin-4-yl)-6-chlorothieno[2,3-d] pyrimidin-4-amine, monomaleate] | – | Ki [4]: 3100 nM; Ki ([18]; read-out: Ki (D4)): 180 nM
18 | – | – | 24 | – | – | CN(C)C(=O)c1cccc(CN2CCC(Nc3ncnc4sc(Cl)cc34)CC2)c1 [Example B57, 3-((4-(6-chlorothieno[2,3-d]pyrimidin-4-ylamino)piperidin-1-yl)methyl)-N,N-dimethylbenzamide, monomaleate] | – | Ki ([18]; read-out: Ki (D4)): 540 nM
19 | – | – | 27 | – | – | CS(=O)(=O)c1cccc(CN2CCC(Nc3ncnc4sc(Cl)cc34)CC2)c1 [Example B58, N-(1-(3-(methylsulfonyl)benzyl)piperidin-4-yl)-6-chlorothieno[2,3-d]pyrimidin-4-amine, monomaleate] | – | Ki [4]: > 10000 nM; Ki ([18]; read-out: Ki (D4)): 430 nM
